Laboratory results: US6180599A, “Pharmaceutical composition, containing medium-chain fatty acids as active ingredients, for dental caries and periodontal disease” (priority 1997, dated 2001)

Experiments:
[1] = system: cariogenic plaque bacteria separated from human oral cavities; assay: Inhibitory effect of bacterial growth, bacteria separated from human oral cavities; format: cell-based; conditions: 1 mM lauric acid as salt form; neutral and acidic pH; FIG. 4
Procedure: (§1) In order to evaluate how medium-chain fatty acids influence bacterial growth of cariogenic plaque bacteria, the influence on each bacteria was evaluated after selecting seven kinds of bacterial strains as standard bacteria among cariogenic plaque bacteria. […] The results that medium-chain fatty acids have on influencing bacterial growth of cariogenic plaque bacteria is shown in FIG. 3. And the result of measuring inhibitory effect of bacterial growth of 20 kinds of cariogenic plaque bacteria separated from the human oral cavities is shown in FIG. 4.

[2] = system: L. casei ATCC 27216; assay: Inhibitory effect on extracellular polysaccharide synthesis, standard strain; format: cell-based, Lactobacillus casei; conditions: 1 mM
Procedure: (§2) In order to identify the effect by which medium-chain fatty acids inhibit plaque matrix formation, inhibitory effect and concentration of extracellular polysaccharide synthesis were determined in seven kinds of standard cariogenic plaque bacteria. Also, the inhibitory effect of extracellular polysaccharide synthesis for 20 kinds of cariogenic plaque bacteria, separated from the human oral cavity, was measured. Liquid culture media used were: Todd-Hewitt broth of Streptococcus, Lactobacilli MRS broth of Lactobacillus and Brain Heart Infusion broth of Actinomyces. 0.1 ml of bacterial (or cell) suspension (OD600 =0.5) of each bacteria was inoculated to 5.9 ml of culture media containing 1 mM of medium-chain fatty acids and 2% of glucose, and was cultured for 24^~ 48 hours in 10% CO2 incubator. After culturing, the resultant was centrifuged to precipitate at 5,000×g for 15 minutes, then soluble extracellular polysaccharide was separated and purified from the supernatant and insoluble extracellular polysaccharide from the cell pellet, and then these were quantified.

[3] = system: L. casei ATCC 4646; assay: as above; format: cell-based, Lactobacillus casei; conditions: 1 mM
Procedure: as §2

[4] = system: cariogenic plaque bacteria (standard strains); assay: Inhibitory effect of acid production, standard strains; format: cell-based, Streptococcus, Lactobacillus and Actinomyces; conditions: for inhibitory effect of acid production (in words): 0.5-8 mM, pH 5.0 and 7.0, 24-48 hours
Procedure: In order to identify the action by which medium-chain fatty acids inhibit acid production, the inhibitory effect and concentration of acid production were determined in seven kinds of standard cariogenic plaque bacteria. Also, the inhibitory effect of acid production for 20 kinds of cariogenic plaque bacteria, separated from the human oral cavity, was assayed. Liquid culture media used were: Todd-Hewitt broth of Streptococcus, Lactobacilli MRS broth of Lactobacillus and Brain Heart Infusion broth of Actinomyces. […] The final pH of the culture medium was measured after culturing for 24^~ 48 hours in 10% CO2 incubator.

[5] = system: Streptococcus sobrinus; assay: Extracellular polysaccharide synthesis in plaque bacteria separated from human oral cavities; format: cell-based; conditions: isolate XX, 1 mM
Procedure: as §2, with “quantified. So the experimental results that represent inhibitory effect of medium-chain fatty acids upon extracellular polysaccharide synthesis, are shown in table 1, 2, 3 and 4.” for “quantified.”

[6] = system: Lactobacillus casei; assay: as above; format: cell-based; conditions: 1 mM
Procedure: as §2, with “quantified. So the experimental results that represent inhibitory effect of medium-chain fatty acids upon extracellular polysaccharide synthesis, are shown in table 1, 2, 3 and 4.” for “quantified.”

[7] = system: Streptococcus mutans; assay: as above; format: cell-based; conditions: 1 mM
Procedure: as §2, with “quantified. So the experimental results that represent inhibitory effect of medium-chain fatty acids upon extracellular polysaccharide synthesis, are shown in table 1, 2, 3 and 4.” for “quantified.”

[8] = system: S. mutans BHT; assay: Inhibitory effect on extracellular polysaccharide synthesis, standard strain; format: cell-based, Streptococcus mutans; conditions: 1 mM
Procedure: as §2

[9] = system: S. mutans JC-2; assay: as above; format: cell-based, Streptococcus mutans; conditions: 1 mM
Procedure: as §2

[10] = system: S. mutans 10449; assay: as above; format: cell-based, Streptococcus mutans; conditions: 1 mM
Procedure: as §2

[11] = system: cariogenic plaque bacteria (standard strains); assay: Inhibitory effect of bacterial growth, standard strains; format: cell-based, Streptococcus, Lactobacillus and Actinomyces
Procedure: as §1

[12] = system: S. sanguis 10556; assay: Inhibitory effect on extracellular polysaccharide synthesis, standard strain; format: cell-based; conditions: 1 mM
Procedure: as §2

[13] = system: cariogenic plaque bacteria separated from human oral cavities; assay: Extracellular polysaccharide synthesis, 20 kinds of bacteria separated from human oral cavities (summary); format: cell-based; conditions: 1 mM
Procedure: as §2, with “quantified. So the experimental results that represent inhibitory effect of medium-chain fatty acids upon extracellular polysaccharide synthesis, are shown in table 1, 2, 3 and 4.” for “quantified.”

Which “inhibition of bacterial growth (in words)” value [1] does the source give for `CCCCCCCCCCCC(=O)[O-].[Na+]` [C12, sodium laurate] here?
The value was “more remarkable effects even at low concentration than that of the control group”.

What about the “Extracellular polysaccharide, insoluble” value ([2]; 2% glucose, 24-48 hours, control 5.9 ± 0.4) of the same molecule?
The value was 2.0 ± 0.1 µg/mL.

What about the “Extracellular polysaccharide, soluble” value ([2]; 2% glucose, 24-48 hours, control 67.3 ± 4.5) of the same molecule?
The value was 19.0 ± 2.1 µg/mL.

What about the “Inhibitory rate, soluble” value ([2]; vs control) of the same molecule?
Its value is 72%.

What about the “Extracellular polysaccharide, insoluble” value ([3]; 2% glucose, 24-48 hours, control 5.3 ± 0.5) of the same molecule?
Its value is 0.2 ± 0.2 µg/mL.

And the “Extracellular polysaccharide, soluble” value ([3]; 2% glucose, 24-48 hours, control 43.6 ± 7.0)?
Its value is 19.2 ± 2.9 µg/mL.

What about the “Inhibitory rate, soluble” value ([3]; vs control) of the same molecule?
The value was 56%.

And the “inhibitory effect of acid production (in words)” value [4]?
Its value is “excellent inhibitory effect of acid production even at low concentration of 1 mM”.

What about the “inhibitory effect of acid production (in words)” value ([4]; listed as salt form of lauric acid) of the same molecule?
Its value is “almost completely inhibits the acid production ability”.

And the “inhibitory effect of acid production in acidic conditions (in words)” value ([4]; acidic conditions, FIG. 1)?
The value was “significant effect of acid production in acidic conditions”.

And the “inhibitory effect of acid production, sequence” value ([4]; ranking, FIG. 1)?
The value was “sodium laurate>sodium capriate>sodium nonanoate”.

What about the Inhibitory rate [5] of the same molecule?
The Inhibitory rate was 79%.

And the Soluble extracellular polysaccharide ([5]; control 116.0 ± 17.2)?
Its Soluble extracellular polysaccharide is 24.0 ± 1.5 µg/mL.

And the Inhibitory rate ([6]; isolate I)?
Its Inhibitory rate is 76%.

What about the Soluble extracellular polysaccharide ([6]; isolate I, control 105.1 ± 7.2) of the same molecule?
The Soluble extracellular polysaccharide was 25.1 ± 1.7 µg/mL.

And the Inhibitory rate ([6]; isolate II)?
The Inhibitory rate was 71%.

And the Soluble extracellular polysaccharide ([6]; isolate II, control 121.4 ± 27.1)?
Its Soluble extracellular polysaccharide is 35.0 ± 2.9 µg/mL.

What about the Inhibitory rate ([6]; isolate III) of the same molecule?
Its Inhibitory rate is 75%.

And the Soluble extracellular polysaccharide ([6]; isolate III, control 140.4 ± 4.9)?
Its Soluble extracellular polysaccharide is 34.7 ± 0.9 µg/mL.

And the Inhibitory rate ([6]; isolate IV)?
The Inhibitory rate was 74%.

What about the Soluble extracellular polysaccharide ([6]; isolate IV, control 151.4 ± 7.6) of the same molecule?
The Soluble extracellular polysaccharide was 38.8 ± 4.1 µg/mL.

And the Inhibitory rate ([6]; isolate IX)?
The Inhibitory rate was 79%.

What about the Soluble extracellular polysaccharide ([6]; isolate IX, control 214.6 ± 18.8) of the same molecule?
The Soluble extracellular polysaccharide was 46.1 ± 3.0 µg/mL.

What about the Inhibitory rate ([6]; isolate V) of the same molecule?
Its Inhibitory rate is 73%.

What about the Soluble extracellular polysaccharide ([6]; isolate V, control 137.4 ± 21.8) of the same molecule?
Its Soluble extracellular polysaccharide is 36.6 ± 4.3 µg/mL.

What about the Inhibitory rate ([6]; isolate VI) of the same molecule?
The Inhibitory rate was 74%.

What about the Soluble extracellular polysaccharide ([6]; isolate VI, control 184.6 ± 6.5) of the same molecule?
Its Soluble extracellular polysaccharide is 48.5 ± 2.7 µg/mL.

What about the Inhibitory rate ([6]; isolate VII) of the same molecule?
Its Inhibitory rate is 70%.

What about the Soluble extracellular polysaccharide ([6]; isolate VII, control 149.9 ± 16.8) of the same molecule?
Its Soluble extracellular polysaccharide is 44.7 ± 3.1 µg/mL.

And the Inhibitory rate ([6]; isolate VIII)?
The Inhibitory rate was 72%.

And the Soluble extracellular polysaccharide ([6]; isolate VIII, control 221.6 ± 20.1)?
Its Soluble extracellular polysaccharide is 62.6 ± 3.4 µg/mL.

And the Inhibitory rate ([6]; isolate X)?
Its Inhibitory rate is 72%.

And the Soluble extracellular polysaccharide ([6]; isolate X, control 201.7 ± 36.1)?
The Soluble extracellular polysaccharide was 56.3 ± 8.2 µg/mL.

What about the Inhibitory rate ([7]; isolate XI) of the same molecule?
Its Inhibitory rate is 70%.

What about the Soluble extracellular polysaccharide ([7]; isolate XI, control 95.2 ± 8.3) of the same molecule?
Its Soluble extracellular polysaccharide is 28.6 ± 3.5 µg/mL.

And the Inhibitory rate ([7]; isolate XII)?
The Inhibitory rate was 58%.

What about the Soluble extracellular polysaccharide ([7]; isolate XII, control 84.2 ± 8.6) of the same molecule?
The Soluble extracellular polysaccharide was 35.2 ± 5.0 µg/mL.

What about the Inhibitory rate ([7]; isolate XIII) of the same molecule?
The Inhibitory rate was 69%.

What about the Soluble extracellular polysaccharide ([7]; isolate XIII, control 90.5 ± 8.3) of the same molecule?
The Soluble extracellular polysaccharide was 27.7 ± 3.3 µg/mL.

What about the Inhibitory rate ([7]; isolate XIV) of the same molecule?
The Inhibitory rate was 53%.

And the Soluble extracellular polysaccharide ([7]; isolate XIV, control 90.5 ± 2.9)?
Its Soluble extracellular polysaccharide is 42.6 ± 1.0 µg/mL.

What about the Inhibitory rate ([7]; isolate XIX) of the same molecule?
The Inhibitory rate was 70%.

What about the Soluble extracellular polysaccharide ([7]; isolate XIX, control 113.7 ± 6.8) of the same molecule?
The Soluble extracellular polysaccharide was 34.3 ± 3.3 µg/mL.

And the Inhibitory rate ([7]; isolate XV)?
The Inhibitory rate was 62%.

What about the Soluble extracellular polysaccharide ([7]; isolate XV, control 117.9 ± 4.6) of the same molecule?
Its Soluble extracellular polysaccharide is 44.5 ± 1.7 µg/mL.

And the Inhibitory rate ([7]; isolate XVI)?
Its Inhibitory rate is 66%.

And the Soluble extracellular polysaccharide ([7]; isolate XVI, control 143.2 ± 11.1)?
The Soluble extracellular polysaccharide was 48.2 ± 4.5 µg/mL.

And the Inhibitory rate ([7]; isolate XVII)?
Its Inhibitory rate is 67%.

What about the Soluble extracellular polysaccharide ([7]; isolate XVII, control 107.8 ± 17.0) of the same molecule?
Its Soluble extracellular polysaccharide is 35.4 ± 2.1 µg/mL.

What about the Inhibitory rate ([7]; isolate XVIII) of the same molecule?
Its Inhibitory rate is 59%.

And the Soluble extracellular polysaccharide ([7]; isolate XVIII, control 98.5 ± 9.0)?
Its Soluble extracellular polysaccharide is 40.5 ± 1.7 µg/mL.

And the “Extracellular polysaccharide, soluble” value ([8]; 2% glucose, 24-48 hours, control 31.5 ± 3.7)?
Its value is 4.1 ± 0.8 µg/mL.

What about the “Inhibitory rate, soluble” value ([8]; vs control) of the same molecule?
The value was 87%.

What about the “Extracellular polysaccharide, insoluble” value ([9]; 2% glucose, 24-48 hours, control 1.1 ± 0.2) of the same molecule?
Its value is 0.1 ± 0.1 µg/mL.

And the “Extracellular polysaccharide, soluble” value ([9]; 2% glucose, 24-48 hours, control 34.4 ± 3.9)?
The value was 0.6 ± 0.5 µg/mL.

And the “Inhibitory rate, soluble” value ([9]; vs control)?
The value was 98%.

What about the “Extracellular polysaccharide, insoluble” value ([10]; 2% glucose, 24-48 hours, control 0.8 ± 0.3) of the same molecule?
Its value is 0.2 ± 0.1 µg/mL.

And the “Extracellular polysaccharide, soluble” value ([10]; 2% glucose, 24-48 hours, control 74.6 ± 1.8)?
Its value is 15.5 ± 3.8 µg/mL.

And the “Inhibitory rate, soluble” value ([10]; vs control)?
The value was 79%.

What about the “inhibitory effect of bacterial growth (in words)” value ([11]; 0.5-8 mM, pH 5.0 and 7.0, OD 600 nm, 24-48 hours) of the same molecule?
The value was “almost completely inhibits”.

What about the “inhibitory effect of bacterial growth, sequence” value ([11]; ranking, FIG. 3) of the same molecule?
The value was “sodium laurate>sodium capriate>sodium nonanoate”.

What about the “Extracellular polysaccharide, soluble” value ([12]; 2% glucose, 24-48 hours, control 25.9 ± 4.3) of the same molecule?
Its value is 12.2 ± 0.9 µg/mL.

And the “Inhibitory rate, soluble” value ([12]; vs control)?
Its value is 53%.

And the “inhibition of soluble extracellular polysaccharide synthesis (in words)” value [13]?
The value was “noticeably inhibits soluble extracellular polysaccharide synthesis”.
